Test results as given in patent US10988459B2 (priority 2015, dated 2021).

Each molecule was assayed against human RIP1 kinase domain (2-375) (Homo sapiens (Human), UniProt Q13546) (assay: biochemical). Conditions: Table 1; apparent Ki (Morrison tight-binding fit); 50 nM RIP1 kinase domain, 50 uM ATP, 2 hours incubation; read-out: RIP1 Ki.
Format: biochemical
Method in brief: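 50 nM purified kinase domain from baculovirus-infected insect cells, incubated 2 h with compound in 50 mM Hepes pH 7.5, 30 mM MgCl2, 1 mM DTT, 50 uM ATP, 0.002% Brij-35, 0.5% DMSO. ADP formation read by Transcreener FP at 633 nm excitation. Ki^app fitted with the Morrison tight-binding equation.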

Chain of human RIP1 kinase domain (2-375) (Q13546 2-375): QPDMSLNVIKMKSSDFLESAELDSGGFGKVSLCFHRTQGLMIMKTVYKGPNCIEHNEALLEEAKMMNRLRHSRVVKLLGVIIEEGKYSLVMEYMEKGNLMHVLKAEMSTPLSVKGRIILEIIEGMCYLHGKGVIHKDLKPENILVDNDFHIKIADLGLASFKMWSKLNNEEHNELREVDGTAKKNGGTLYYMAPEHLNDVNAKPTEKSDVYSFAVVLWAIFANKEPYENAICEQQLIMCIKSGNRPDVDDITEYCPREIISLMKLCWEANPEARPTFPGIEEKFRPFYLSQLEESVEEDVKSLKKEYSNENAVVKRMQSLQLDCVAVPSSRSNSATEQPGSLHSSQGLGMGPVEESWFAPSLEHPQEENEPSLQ

SMILES	Ki [nM]
CC1Cn2c(cnc2C(=O)N[C@H]2COc3ccccc3N(C)C2=O)CO1 (stereo partly drawn) [Example 10, 6-methyl-N—((S)-5-methyl-4-oxo-2,3,4,5-tetrahydrobenzo[b][1,4]oxazepin-3-yl)-6,8-dihydro-5H-imidazo[5,1-c][1,4]oxazine-3-carboxamide]	2600
CN1C(=O)[C@@H](NC(=O)c2n[nH]c3c2CCC2(CC2)C3)COc2ccccc21 [Example 2, (S)—N-(5-methyl-4-oxo-2,3,4,5-tetrahydrobenzo[b][1,4]oxazepin-3-yl)-1′,4′,5′,7′-tetrahydrospiro[cyclopropane-1,6′-indazole]-3′-carboxamide]	6500

Same assay, conditions: Table 5; apparent Ki (Morrison tight-binding fit); 50 nM RIP1 kinase domain, 50 uM ATP, 2 hours incubation; read-out: Ki

Ki [nM]	SMILES
13	CN1C(=O)[C@@H](NC(=O)c2nc3n(n2)[C@H](c2ccccc2)CCC3)COc2ccccc21 [Example 735, (S)—N—((S)-5-methyl-4-oxo-2,3,4,5-tetrahydrobenzo[b][1,4]oxazepin-3-yl)-5-phenyl-5,6,7,8-tetrahydro-[1,2,4]triazolo[1,5-a]pyridine-2-carboxamide]
172	COC1CN(Cc2cc3n(n2)CC[C@H](NC(=O)c2ncn(Cc4ccccc4)n2)C(=O)N3C)C1 (single isomer, unassigned) [Example 725]
142	CN1C(=O)[C@@H](NC(=O)c2ncn(Cc3ccccc3)n2)CCn2nc(CN3CC(F)C3)cc21 (single isomer, unassigned) [Example 726]
12	C[C@@]1(C(F)(F)F)OCc2cnc(C(=O)N[C@H]3CCc4cc(F)cc(F)c4NC3=O)nc21 [Example 749, (7R)-7-methyl-N-[(3S)-7,9-difluoro-2-oxo-1,3,4,5-tetrahydro-1-benzazepin-3-yl]-7-(trifluoromethyl)-5H-furo[3,4-d]pyrimidine-2-carboxamide]

Same assay, conditions: human RIP1 kinase domain (2-375), 50 uM ATP, 2 hours incubation, Transcreener ADP assay; read-out: RIP1 Ki

Ki [nM]	SMILES
84.3	CN1C(=O)C(NC(=O)c2ncn(Cc3ccccc3)n2)CCn2cncc21 (centres unmarked) [Example 204, 1-benzyl-N-(1-methyl-2-oxo-2,3,4,5-tetrahydro-1H-imidazo[1,5-a][1,3]diazepin-3-yl)-1H-1,2,4-triazole-3-carboxamide]
75.6	CN1C(=O)C(NC(=O)c2n[nH]c(Cc3ccccc3)n2)CCn2nc(-c3ccccc3)cc21 (centres unmarked) [Example 209, 5-benzyl-N-(4-methyl-5-oxo-2-phenyl-5,6,7,8-tetrahydro-4H-pyrazolo[1,5-a][1,3]diazepin-6-yl)-1H-1,2,4-triazole-3-carboxamide]

Same assay, conditions: human RIP1 kinase domain (2-375), Transcreener ADP assay, 50 uM ATP, 2 hours incubation; read-out: RIP1 Ki

Ki [nM]	SMILES
70.7	CC(C1CCn2nnc(C(=O)N[C@H]3COc4ccccc4N(C)C3=O)c2C1)C(F)(F)F (stereo partly drawn) [Example 252, N—((S)-5-methyl-4-oxo-2,3,4,5-tetrahydrobenzo[b][1,4]oxazepin-3-yl)-5-(1,1,1-trifluoropropan-2-yl)-4,5,6,7-tetrahydro-[1,2,3]triazolo[1,5-a]pyridine-3-carboxamide]
199	CN1C(=O)C(NC(=O)c2ncn(Cc3ccccc3)n2)CCn2nc(C3CCOCC3)cc21 (centres unmarked) [Example 234, 1-benzyl-N-(4-methyl-5-oxo-2-(tetrahydro-2H-pyran-4-yl)-5,6,7,8-tetrahydro-4H-pyrazolo[1,5-a][1,3]diazepin-6-yl)-1H-1,2,4-triazole-3-carboxamide]
4900	CC[C@]1(C)OCc2cc(C(=O)NC3CCn4nc(-c5ccccc5)cc4N(C)C3=O)ncc21 (stereo partly drawn) [Example 265, (3S)-3-ethyl-3-methyl-N-(4-methyl-5-oxo-2-phenyl-5,6,7,8-tetrahydro-4H-pyrazolo[1,5-a][1,3]diazepin-6-yl)-1,3-dihydrofuro[3,4-c]pyridine-6-carboxamide]
990	CN1C(=O)[C@@H](NC(=O)c2cc(C3(O)CCCC3)ccn2)COc2ccccc21 [Example 328, (S)-4-(1-hydroxycyclopentyl)-N-(5-methyl-4-oxo-2,3,4,5-tetrahydrobenzo[b][1,4]oxazepin-3-yl)picolinamide]

SMILES	Ki [nM]
CN1C(=O)[C@@H](NC(=O)c2nnn3c2CC(C(F)(F)C(F)(F)F)CC3)COc2ccccc21 (stereo partly drawn) [Example 277, N—((S)-5-methyl-4-oxo-2,3,4,5-tetrahydrobenzo[b][1,4]oxazepin-3-yl)-5-(perfluoroethyl)-4,5,6,7-tetrahydro-[1,2,3]triazolo[1,5-a]pyridine-3-carboxamide]	23.9

Same assay, conditions: tight-binding apparent inhibition constant; human RIP1 kinase domain (2-375) 50 nM, 50 uM ATP, 2 hours; read-out: Ki

Ki [nM]	SMILES
360	Cc1cc2n(n1)CC[C@H](NC(=O)c1ncn(CC3CCCOC3)n1)C(=O)N2C (stereo partly drawn) [Example 475, N-(6S)-2,4-dimethyl-5-oxo-7,8-dihydro-6H-pyrazolo[1,5-a][1,3]diazepin-6-yl-1-(tetrahydropyran-3-ylmethyl)-1,2,4-triazole-3-carboxamide]
34.3	O=C(N[C@H]1CCc2cc(F)cc(F)c2NC1=O)c1nc2cccc(C(F)(F)F)n2n1 [Example 418, (S)—N-(7,9-difluoro-2-oxo-2,3,4,5-tetrahydro-1H-benzo[b]azepin-3-yl)-5-(trifluoromethyl)-[1,2,4]triazolo[1,5-a]pyridine-2-carboxamide]
9.73	CN1C(=O)[C@@H](NC(=O)c2ncn(Cc3c(F)cccc3F)n2)CCn2nccc21 [Example 343, 1-[(2,6-difluorophenyl)methyl]-N-[(6S)-4-methyl-5-oxo-7,8-dihydro-6H-pyrazolo[1,5-a][1,3]diazepin-6-yl]-1,2,4-triazole-3-carboxamide]
14	O=C(N[C@H]1COc2cc(F)cc(F)c2NC1=O)c1nc2n(n1)CCC2c1ccccc1 (stereo in doubt) [Example 626, (7R)-7-phenyl-N-[(3S)-6,8-difluoro-4-oxo-3,5-dihydro-2H-1,5-benzoxazepin-3-yl]-6,7-dihydro-5H-pyrrolo[1,2-b][1,2,4]triazole-2-carboxamide]
2800	Cc1cc2n(n1)CC[C@H](NC(=O)c1ncn(CC3CCOC3)n1)C(=O)N2C (stereo partly drawn) [Example 479, N-(6S)-2,4-dimethyl-5-oxo-7,8-dihydro-6H-pyrazolo[1,5-a][1,3]diazepin-6-yl-1-(tetrahydrofuran-3-ylmethyl)-1,2,4-triazole-3-carboxamide]
23	CN1C(=O)[C@@H](NC(=O)c2nc3n(n2)CCC3c2ccccc2)COc2ccccc21 (stereo partly drawn) [Example 571, 7-phenyl-N-[(3S)-5-methyl-4-oxo-2,3-dihydro-1,5-benzoxazepin-3-yl]-6,7-dihydro-5H-pyrrolo[1,2-b][1,2,4]triazole-2-carboxamide]
96.3	CN1C(=O)[C@@H](NC(=O)c2nc3cccc(-c4ccccc4)c3s2)CCn2nccc21 [Example 392, (S)—N-(4-methyl-5-oxo-5,6,7,8-tetrahydro-4H-pyrazolo[1,5-a][1,3]diazepin-6-yl)-7-phenylbenzo[d]thiazole-2-carboxamide]
24	CN1C(=O)[C@@H](NC(=O)c2ncn(Cc3ccc(Cl)cc3)n2)CCn2nc(C(F)(F)F)cc21 [Example 532]
27.4	O=C(N[C@H]1COc2cc(F)cc(F)c2NC1=O)c1nc2cccc(C3CCOCC3)n2n1 [Example 422, (S)—N-(6,8-difluoro-4-oxo-2,3,4,5-tetrahydrobenzo[b][1,4]oxazepin-3-yl)-5-(tetrahydro-2H-pyran-4-yl)-[1,2,4]triazolo[1,5-a]pyridine-2-carboxamide]
172	CN1C(=O)[C@@H](NC(=O)c2ncc3c(n2)[C@]2(CCOC2)OC3)COc2ccccc21 (racemic) [Example 694, rac-(7S)-N-[rac-(3S)-5-methyl-4-oxo-2,3-dihydro-1,5-benzoxazepin-3-yl]spiro[5H-furo[3,4-d]pyrimidine-7,3′-tetrahydrofuran]-2-carboxamide]
330	Cc1cc2n(n1)CC[C@H](NC(=O)c1nc3n(n1)CCCC3c1ccccc1)C(=O)N2C (stereo partly drawn) [Example 554, 8-phenyl-N-[(6S)-2,4-dimethyl-5-oxo-7,8-dihydro-6H-pyrazolo[1,5-a][1,3]diazepin-6-yl]-5,6,7,8-tetrahydro-[1,2,4]triazolo[1,5-a]pyridine-2-carboxamide]
9200	CN1C(=O)[C@H](NC(=O)c2ncn(Cc3ccc(F)cc3)n2)CCn2nc(C3CC3)cc21 (stereo in doubt) [Example 680, 1-[(4-fluorophenyl)methyl]-N-[rac-(6R)-2-cyclopropyl-4-methyl-5-oxo-7,8-dihydro-6H-pyrazolo[1,5-a][1,3]diazepin-6-yl]-1,2,4-triazole-3-carboxamide]
10.9	CN1C(=O)[C@@H](NC(=O)c2ncn(Cc3cccc(F)c3F)n2)CCn2nccc21 (racemic) [Example 342, 1-[(2,3-difluorophenyl)methyl]-N-[rac-(6S)-4-methyl-5-oxo-7,8-dihydro-6H-pyrazolo[1,5-a][1,3]diazepin-6-yl]-1,2,4-triazole-3-carboxamide]
3.4	CN1C(=O)[C@@H](NC(=O)c2nc3n(n2)[C@@H](c2ccccc2)CC3)COc2ccccc21 [Example 623, (5R)-5-phenyl-N-[(3S)-5-methyl-4-oxo-2,3-dihydro-1,5-benzoxazepin-3-yl]-6,7-dihydro-5H-pyrrolo[1,2-b][1,2,4]triazole-2-carboxamide]
28.2	CN1C(=O)[C@@H](NC(=O)c2ncn(Cc3ccc(F)cc3)n2)CCn2nccc21 (racemic) [Example 339, 1-[(4-fluorophenyl)methyl]-N-[rac-(6S)-4-methyl-5-oxo-7,8-dihydro-6H-pyrazolo[1,5-a][1,3]diazepin-6-yl]-1,2,4-triazole-3-carboxamide]
36.5	O=C(N[C@H]1COc2cc(F)cc(F)c2NC1=O)c1nc2cccc(C(F)(F)F)n2n1 [Example 417, (S)—N-(6,8-difluoro-4-oxo-2,3,4,5-tetrahydrobenzo[b][1,4]oxazepin-3-yl)-5-(trifluoromethyl)-[1,2,4]triazolo[1,5-a]pyridine-2-carboxamide]
